The term IC50 denotes the concentration that inhibits the measured activity by half.

Test [1] concerns the target T1, AXL (Homo sapiens, UniProt P30530).
T1 construct: endogenous in cells; host or cells: A-172 glioblastoma cells (ATCC #CRL-1620)
T1 sequence (P30530 26-894): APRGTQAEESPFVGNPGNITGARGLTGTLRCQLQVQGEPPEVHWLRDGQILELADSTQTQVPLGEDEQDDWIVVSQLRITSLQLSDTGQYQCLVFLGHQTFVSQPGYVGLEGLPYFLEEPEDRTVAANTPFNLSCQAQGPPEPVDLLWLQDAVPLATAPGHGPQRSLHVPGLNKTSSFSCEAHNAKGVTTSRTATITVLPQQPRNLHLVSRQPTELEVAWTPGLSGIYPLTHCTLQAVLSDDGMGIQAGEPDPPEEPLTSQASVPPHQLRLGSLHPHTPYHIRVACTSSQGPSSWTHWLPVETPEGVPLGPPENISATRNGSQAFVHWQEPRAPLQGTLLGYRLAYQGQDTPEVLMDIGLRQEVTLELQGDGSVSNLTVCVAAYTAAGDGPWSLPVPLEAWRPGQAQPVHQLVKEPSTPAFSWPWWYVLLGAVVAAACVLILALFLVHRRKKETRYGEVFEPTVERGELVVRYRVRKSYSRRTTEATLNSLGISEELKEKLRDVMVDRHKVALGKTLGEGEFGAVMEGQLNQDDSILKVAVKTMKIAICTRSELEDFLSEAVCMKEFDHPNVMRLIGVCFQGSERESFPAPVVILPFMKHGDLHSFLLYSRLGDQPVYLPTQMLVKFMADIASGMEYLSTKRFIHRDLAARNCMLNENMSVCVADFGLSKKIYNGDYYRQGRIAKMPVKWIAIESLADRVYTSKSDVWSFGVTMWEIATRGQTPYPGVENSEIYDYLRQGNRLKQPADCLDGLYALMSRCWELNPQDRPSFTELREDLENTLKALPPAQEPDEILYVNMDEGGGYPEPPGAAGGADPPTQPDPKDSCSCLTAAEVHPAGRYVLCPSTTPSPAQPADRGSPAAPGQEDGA
The test can be described thus: AXL autophosphorylation ELISA in A-172 cells. The class given is cell-based. The following applies: cellular activity, Gas6-stimulated, phospho-AXL ELISA. The gist of the method:
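Serum-starved (24 h) A-172 glioblastoma cells got an 8-point compound series (0.3% DMSO) for 1 h, then 1 μg/mL human Gas6 for 15 min. Lysate phospho-AXL quantified by ELISA against phospho-AXL standard, normalized to DMSO and reference-inhibitor controls; IC50 by 4-parameter logistic fit.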
(In general: ELISA stands for enzyme-linked immunosorbent assay.)

Test [2] addresses Met (Homo sapiens, UniProt P08581). The test is described as follows: Met autophosphorylation ELISA in PC-3 cells. It counts as cell-based. More on the design: endogenous in cells; host or cells: PC-3 prostate cancer cells (ATCC #CRL-1435). The following applies: cellular activity, HGF-stimulated, phospho-Met ELISA, read-out: c-Met IC50. A digest of the protocol: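 Phospho-Met (panTyr) sandwich ELISA on lysates of PC-3 cells given 100 ng/mL HGF for 10 min after 1 h compound exposure (8-point curve, 0.3% DMSO) following 3 h serum starvation. Normalised to HGF-stimulated DMSO and reference-inhibitor wells; 4-parameter logistic IC50.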

Sequence of Met (P08581 25-1390): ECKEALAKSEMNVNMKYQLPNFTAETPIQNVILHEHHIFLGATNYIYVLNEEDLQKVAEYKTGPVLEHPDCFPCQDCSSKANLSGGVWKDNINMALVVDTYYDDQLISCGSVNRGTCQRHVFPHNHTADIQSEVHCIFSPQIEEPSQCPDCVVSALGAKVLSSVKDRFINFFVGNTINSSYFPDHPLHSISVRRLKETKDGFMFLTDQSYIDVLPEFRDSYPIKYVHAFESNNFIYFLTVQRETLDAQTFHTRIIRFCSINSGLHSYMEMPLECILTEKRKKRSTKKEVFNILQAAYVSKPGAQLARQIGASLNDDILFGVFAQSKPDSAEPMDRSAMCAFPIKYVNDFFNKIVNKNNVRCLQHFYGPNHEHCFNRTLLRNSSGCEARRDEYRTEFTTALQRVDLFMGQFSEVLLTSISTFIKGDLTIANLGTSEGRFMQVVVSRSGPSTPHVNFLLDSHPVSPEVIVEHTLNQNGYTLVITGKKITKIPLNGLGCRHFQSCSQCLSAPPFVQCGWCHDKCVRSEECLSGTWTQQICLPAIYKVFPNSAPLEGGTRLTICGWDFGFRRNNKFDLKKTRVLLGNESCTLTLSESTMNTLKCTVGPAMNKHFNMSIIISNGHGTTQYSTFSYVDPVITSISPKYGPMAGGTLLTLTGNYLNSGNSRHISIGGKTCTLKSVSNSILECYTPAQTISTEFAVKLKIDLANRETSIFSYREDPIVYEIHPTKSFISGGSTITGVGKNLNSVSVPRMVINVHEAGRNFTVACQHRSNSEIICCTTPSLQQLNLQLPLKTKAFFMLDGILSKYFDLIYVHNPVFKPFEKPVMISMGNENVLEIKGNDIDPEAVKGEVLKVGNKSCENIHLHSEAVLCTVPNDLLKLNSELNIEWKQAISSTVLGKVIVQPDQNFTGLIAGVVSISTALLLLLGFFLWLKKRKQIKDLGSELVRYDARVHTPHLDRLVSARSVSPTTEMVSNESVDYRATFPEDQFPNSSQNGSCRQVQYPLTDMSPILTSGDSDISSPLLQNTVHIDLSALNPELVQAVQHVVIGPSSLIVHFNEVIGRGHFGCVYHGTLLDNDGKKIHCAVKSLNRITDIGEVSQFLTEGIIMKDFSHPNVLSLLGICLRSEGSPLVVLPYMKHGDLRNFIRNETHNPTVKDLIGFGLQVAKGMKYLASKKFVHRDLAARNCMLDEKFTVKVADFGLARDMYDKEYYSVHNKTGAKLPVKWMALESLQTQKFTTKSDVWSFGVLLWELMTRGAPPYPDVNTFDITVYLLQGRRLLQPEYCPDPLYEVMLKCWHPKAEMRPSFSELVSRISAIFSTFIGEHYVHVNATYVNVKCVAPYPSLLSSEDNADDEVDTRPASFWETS

Regarding `O=C(Nc1ccc(F)cc1)C1(C(=O)Nc2ccc(Oc3ccnc4cc(-c5cc6ccccn6n5)ccc34)cc2)CC1` [Compound 104, 1-N′-(4-Fluorophenyl)-1-N-[4-(7-pyrazolo[1,5-a]pyridin-2-ylquinolin-4-yl)oxyphenyl]cyclopropane-1,1-dicarboxamide], the IC50 in test [1] and in test [2] was 100 to 300 nM throughout.

On to `O=C(Nc1ccc(F)cc1)C1(C(=O)Nc2ccc(Oc3ccnc4cc(-c5ccn(CF)n5)ccc34)cc2)CC1` [Compound 102, 1-N-[4-[7-[1-(Fluoromethyl)pyrazol-3-yl]quinolin-4-yl]oxyphenyl]-1-N′-(4-fluorophenyl)cyclopropane-1,1-dicarboxamide], for which the IC50 in test [1] and in test [2] was 10 to 100 nM in each case.

Regarding `Cc1cn(-c2ccc3c(Oc4ccc(NC(=O)C5(C(=O)Nc6ccc(F)cc6)CC5)cc4)ccnc3c2)cn1` [Compound 87, 1-N′-(4-Fluorophenyl)-1-N-[4-[7-(4-methylimidazol-1-yl)quinolin-4-yl]oxyphenyl]cyclopropane-1,1-dicarboxamide], the IC50 in test [1] was at most 10 nM; in test [2], 10 to 100 nM.

In the case of `Cc1cnn(-c2ccc3c(Oc4ccc(NC(=O)C5(C(=O)Nc6ccc(F)cc6)CC5)cc4)ccnc3c2)c1` [Compound 96, 1-N′-(4-Fluorophenyl)-1-N-[4-[7-(4-methylpyrazol-1-yl)quinolin-4-yl]oxyphenyl]cyclopropane-1,1-dicarboxamide], the IC50 in test [1] fell in the range of 100 to 300 nM; in test [2], 10 to 100 nM.

For `Nc1n[nH]cc1-c1ccc2c(Oc3ccc(NC(=O)C4(C(=O)Nc5ccc(F)cc5)CC4)cc3)ccnc2c1` [Compound 90, 1-N-[4-[7-(3-Amino-1H-pyrazol-4-yl)quinolin-4-yl]oxyphenyl]-1-N′-(4-fluorophenyl)cyclopropane-1,1-dicarboxamide], the IC50 in test [1] and in test [2] was 10 to 100 nM throughout.

Regarding `Cc1cc2c(Oc3cc(F)c(NC(=O)C4(C(=O)Nc5ccc(F)cc5)CC4)cc3F)ccnc2cc1-c1cnn(C)c1` [Compound 105, 1-N′-[2,5-Difluoro-4-[6-methyl-7-(1-methylpyrazol-4-yl)quinolin-4-yl]oxyphenyl]-1-N-(4-fluorophenyl)cyclopropane-1,1-dicarboxamide], the IC50 in test [1] and in test [2] was 10 to 100 nM throughout.

Consider `O=C(Nc1ccc(F)cc1)C1(C(=O)Nc2ccc(Oc3ccnc4cc(-c5cnn(CF)c5)ccc34)cc2)CC1` [Compound 94, 1-N-[4-[7-[1-(Fluoromethyl)pyrazol-4-yl]quinolin-4-yl]oxyphenyl]-1-N′-(4-fluorophenyl)cyclopropane-1,1-dicarboxamide], for which the IC50 was at most 10 nM in test [1] and 10 to 100 nM in test [2].

On to `CC(=O)N1CCC(c2ccc3c(Oc4ccc(NC(=O)C5(C(=O)Nc6ccc(F)cc6)CC5)cc4)ccnc3c2)C1` (stereo not drawn) [Compound 92, 1-N-[4-[7-(1-Acetylpyrrolidin-3-yl)quinolin-4-yl]oxyphenyl]-1-N′-(4-fluorophenyl)cyclopropane-1,1-dicarboxamide], for which the IC50 in test [1] and in test [2] was 10 to 100 nM throughout.

`O=C(Nc1ccc(F)cc1)C1(C(=O)Nc2ccc(Oc3ccnc4cc(C5=CCOC5)ccc34)cc2)CC1` [Compound 95, 1-N-[4-[7-(2,5-Dihydrofuran-3-yl)quinolin-4-yl]oxyphenyl]-1-N′-(4-fluorophenyl)cyclopropane-1,1-dicarboxamide]: the IC50 in test [1] and in test [2] was 10 to 100 nM each time.

On to `O=C(Nc1ccc(F)cc1)C1(C(=O)Nc2ccc(Oc3ccnc4cc(-c5ccccc5)ccc34)cc2)CC1` [Compound 55, 1-N′-(4-Fluorophenyl)-1-N-[4-(7-phenylquinolin-4-yl)oxyphenyl]cyclopropane-1,1-dicarboxamide], for which the half-inhibitory concentration (IC50) in test [1] and in test [2] was 100 to 300 nM each time.

For the molecule `Cc1cc(-c2ccc3c(Oc4ccc(NC(=O)C5(C(=O)Nc6ccc(F)cc6)CC5)cc4)ccnc3c2)nn1C` [Compound 101, 1-N-[4-[7-(1,5-Dimethylpyrazol-3-yl)quinolin-4-yl]oxyphenyl]-1-N′-(4-fluorophenyl)cyclopropane-1,1-dicarboxamide], the IC50 in test [1] and in test [2] was 10 to 100 nM throughout.

`CS(=O)(=O)N1CCC(c2ccc3c(Oc4ccc(NC(=O)C5(C(=O)Nc6ccc(F)cc6)CC5)cc4)ccnc3c2)C1` (stereo not drawn) [Compound 93, 1-N′-(4-Fluorophenyl)-1-N-[4-[7-(1-methylsulfonylpyrrolidin-3-yl)quinolin-4-yl]oxyphenyl]cyclopropane-1,1-dicarboxamide]: the IC50 fell in the range of 100 to 300 nM in test [1] and 10 to 100 nM in test [2].

As for `Cc1cc2c(Oc3ccc(NC(=O)C4(C(=O)Nc5ccc(F)cc5)CC4)cc3)ccnc2cc1-c1ccn(C)n1` [Compound 108, 1-N′-(4-Fluorophenyl)-1-N-[4-[6-methyl-7-(1-methylpyrazol-3-yl)quinolin-4-yl]oxyphenyl]cyclopropane-1,1-dicarboxamide], the IC50 in test [1] is 10 to 100 nM; in test [2], 100 to 300 nM.

Turning to `Cc1ccn(-c2ccc3c(Oc4ccc(NC(=O)C5(C(=O)Nc6ccc(F)cc6)CC5)cc4)ccnc3c2)n1` [Compound 91, 1-N′-(4-Fluorophenyl)-1-N-[4-[7-(3-methylpyrazol-1-yl)quinolin-4-yl]oxyphenyl]cyclopropane-1,1-dicarboxamide], the IC50 in test [1] fell in the range of 100 to 300 nM; in test [2] it was 10 to 100 nM.

As for `Cc1cc2c(Oc3ccc(NC(=O)C4(C(=O)Nc5ccc(F)cc5)CC4)cc3)ccnc2cc1-c1cc[nH]n1` [Compound 107, 1-N′-(4-Fluorophenyl)-1-N-[4-[6-methyl-7-(1H-pyrazol-3-yl)quinolin-4-yl]oxyphenyl]cyclopropane-1,1-dicarboxamide], the 50% inhibitory concentration (IC50) in test [1] lay in the range of 10 to 100 nM; in test [2], 100 to 300 nM.

Consider `O=C(Nc1ccc(F)cc1)C1(C(=O)Nc2ccc(Oc3ccnc4cc(-c5ccn(C6CC6)n5)ccc34)cc2)CC1` [Compound 98, 1-N-[4-[7-(1-Cyclopropylpyrazol-3-yl)quinolin-4-yl]oxyphenyl]-1-N′-(4-fluorophenyl)cyclopropane-1,1-dicarboxamide], for which the 50% inhibitory concentration (IC50) in test [1] and in test [2] was 10 to 100 nM throughout.

Turning to `Nc1cc(-c2ccc3c(Oc4ccc(NC(=O)C5(C(=O)Nc6ccc(F)cc6)CC5)cc4)ccnc3c2)ccn1` [Compound 97, 1-N-[4-[7-(2-Aminopyridin-4-yl)quinolin-4-yl]oxyphenyl]-1-N′-(4-fluorophenyl)cyclopropane-1,1-dicarboxamide], the IC50 in test [1] and in test [2] was 10 to 100 nM in each case.

Consider `Cc1cc(-c2ccc3c(Oc4ccc(NC(=O)C5(C(=O)Nc6ccc(F)cc6)CC5)cc4)ccnc3c2)n[nH]1` [Compound 99, 1-N′-(4-Fluorophenyl)-1-N-[4-[7-(5-methyl-1H-pyrazol-3-yl)quinolin-4-yl]oxyphenyl]cyclopropane-1,1-dicarboxamide], for which the IC50 in test [1] and in test [2] was 10 to 100 nM each time.
